In patent publication US10407712B2, “Methods, compositions and kits for high throughput kinase activity screening using mass spectrometry and stable isotopes” (President and Fellows of Harvard College, priority 2008, dated 2019):

Assays:
HEK293 cell lysates [1] = assay: Single-reaction 90-substrate KAYAK assay, HEK293 lysates with or without insulin; format: biochemical, human; conditions: 5 μM each peptide, HEK293 lysate
Description: (§1) For stimulation of HEK293 cells or HeLa lines, cells were treated with insulin (100 nM; 10-30 min) EGF (50 ng/ml; 10 min) or phorbol 12-myristate 13-acetate (PMA; 50 or 100 ng/ml; 10 -30 min) at 37° C. for the indicated times after overnight serum-starvation.
Alternatively, cells were washed with PBS once and lysed with ice-cold lysis buffer, 10 mM potassium phosphate, pH 7.0, containing 0.5% NP-40, 0.1% Brij 35, 0.1% deoxycholic acid, 1 mM ethylenediaminetetraacetic acid (EDTA), 5 mM ethylene glycol tetraacetic acid (EGTA), 10 mM MgCl2, 50 mM β-glycerophosphate, 1 mM Na3VO4, 2 mM dithiothreitol (DTT) and protease inhibitor cocktail (Complete, Roche Applied Science, Indianapolis, Ind.). Homogenates were centrifuged at 10,000 rpm for 15 min at 4° C., and the supernatant was used as lysate. Protein concentration was quantified by a modified Bradford assay (Pierce).
(§2) Peptides were synthesized, purified and quantified as described in Yu et al. 2009 Proc Natl Acad Sci USA 106: 11606-11611, hereby incorporated by reference herein in its entirety. Each substrate peptide (250 pmol) was mixed to a final concentration of 5 μM in the 50 μL reaction mixture. Alternatively, reactions were performed using 6 μg cell lysate aliquotes mixed to a final volume of 20 μl. Cell lysate or other kinase source was added to the substrate mixture in 25 mM Tris-Cl, pH 7.5, containing 5 mM ATP, 7.5 mM MgCl2, 0.2 mM EGTA, 7.5 mM β-glycerophosphate, 0.1 mM Na3VO4, and 0.1 mM DTT. The reaction was incubated at 25° C. for 60 min and then terminated by the addition of 100 μl of 1% trifluoroacetic acid (TFA) containing a known amount of an internal standard (typically 20 pmol). Alternatively, the reaction was incubated at 20° C. for 45 min before termination with TFA.
Internal standard heavy peptides (5 pmol each) were added as a mixture to the terminated reactions followed by desalting with a solid phase extraction cartridge (SepPak tC18 (50 mg), Waters, Milford, Mass.). Phosphopeptides were enriched as described (Villen et al. 2008 Nat Protoc 3: 1630-1638). […]
For KAYAK analyses, phosphopeptides were dissolved in 5% FA and injected onto a 125-μm-internal diameter fused silica column packed with Magic C18 AQ material (Michrom Bioresources, Auburn, Calif.). Peptides were separated using a two-solvent system: solvent A (0.125% FA and 3% ACN in H2O), solvent B (0.125% FA in ACN) over 32 min gradient, and eluting peptides were directly analyzed using an LTQ-Orbitrap mass spectrometer (Thermo Scientific, San Jose, Calif.) equipped with the electron transfer dissociation option. […]

HEK293 cell lysates [2] = assay: KAYAK in vitro kinase assay, individual reactions, lysates of starved, insulin- or EGF-stimulated HEK293 cells; format: biochemical, human
Description: as §1
For cell lysis, the media were removed, and cells were washed with ice-cold phosphate-buffered saline (PBS) and lysed with ice-cold lysis buffer (10 mM K2HPO4 pH 7.5, 1 mM EDTA, 10 mM MgCl2, 50 mM β-glycerophosphate, 5 mM EGTA, 0.5% Nonidet P-40, 0.1% Brij 35, 0.1% deoxycholic acid, 1mM sodium orthovanadate, 1mM phenylmethyl-sulfonyl fluoride, 5 μg/ml leupeptin and 5 μg/ml pepstatin A). Lysates were centrifuged at 10,000 rpm for 10 min to remove cell debris, and clear supernatant was used for immunoblotting and in vitro kinase assays. Protein concentration was determined by Bradford assay (Biorad, Hercules, Calif.).
as §2
Forty-five individual in vitro kinase reaction mixtures were combined and desalted by using Sep-Pak C18 cartridge (Waters, Milford, Mass.). Phosphopeptides were enriched by immobilized metal ion chromatography (IMAC) with 20 μl of beads (Phos-Select iron affinity gel; Sigma, St. Louis, Mo.) and subsequently desalted by using Empore C18 solid phase extraction disks (3M, St. Paul, Minn.) as described previously.
Quantitation of the target peptide-internal standard ratios was performed by first constructing the extracted ion chromatogram for the most abundant charge state for each peptide using a ±10 ppm window. Chromatograms were integrated using Qual/Quan browser (Xcalibur 2.0.5, Thermo Fisher, San Jose, Calif.). Since the phosphorylated peptides generated from the in vitro kinase reactions were chemically identical to the internal standards, they were assumed to have the same ionization efficiency. Therefore, the amount of each phosphorylated peptide was calculated by direct ratio to the internal standard level.
To test substrate suitability in a multiplexed assay, the phosphorylation activities were measured using […] of each substrate peptide, 6 μg lysate, and 5 mM ATP in a plate format. Reactions proceeded for 60 minutes followed by acidification and the addition of isotope-labeled reference peptides. After pooling 45 samples, phosphopeptide enrichment was followed by liquid-chromatography (LC) separation and on-line peptide detection by high-resolution mass spectrometry.
The ability of the peptides to report specific changes in kinase activation after pathway stimulation was examined herein. Lysates from HEK293 cells were collected after insulin or EGF treatment and were compared to their activities in the serum-starved state using the KAYAK approach. Western blot analysis of lysates from cells in which the PI3K and MAPK pathways were activated, as indicated by elevated phospho-Akt and phospho-ERK1/2 levels, respectively, is shown in FIG. 1D. […]

## RIRTQSFSLQPFR (The sequence was designed and synthesized) [F6]
HEK293 cell lysates [1]
  phosphorylation in response to insulin stimulation: increased phosphorylation
HEK293 cell lysates [2]; EGF-stimulated compared to starved HEK293 cells
  E: changed phosphorylation in EGF stimulated condition: ++ (A change of more than +4 and −4 fold is indicated by “++” and “−−”, respectively.)
HEK293 cell lysates [2]; insulin-stimulated compared to starved HEK293 cells
  I: changed phosphorylation in insulin stimulated condition: + (A change of more +2 fold and −2 fold is indicated by “+” and “−”, respectively.)
